In the supplement of paper PMC10721915:
± gives the standard deviation of the averaged measurements.

Compound: COc1ccc([C@@H](O)c2cc(-c3ncnc4cc(N5CCOCC5)ccc34)c(F)cc2Cl)nn1 [peposertib]
Test: relative cell growth vs untreated control (GI, NCI-DTP normalisation with time-zero) (fraction of control growth); higher = more growth / less inhibition
Settings: treatment time: 120 h
Procedure: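 Cancer cell lines were treated with peposertib (DNA-PK inhibitor) combined with gamma ionizing radiation (0, 2, 3 or 6 Gy) for 120 h, starting 48 h after seeding. Read-out was sulforhodamine B total-protein staining, normalised to untreated control and time-zero wells (NCI-DTP GI convention).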

[1] = peposertib concentration 0.00488 µM, gamma irradiation dose (Gy): 0
[2] = peposertib concentration 0.0195 µM, gamma irradiation dose (Gy): 0
[3] = peposertib concentration 0.0781 µM, gamma irradiation dose (Gy): 0
[4] = peposertib concentration 0.313 µM, gamma irradiation dose (Gy): 0
[5] = peposertib concentration 1.25 µM, gamma irradiation dose (Gy): 0
[6] = peposertib concentration 5 µM, gamma irradiation dose (Gy): 0

SW620
relative cell growth [1]: 1.03 ± 0.033 | relative cell growth (peposertib concentration 0.00488 µM, gamma irradiation dose (Gy): 3): 0.3 | relative cell growth [2]: 1.01 ± 0.048 | relative cell growth (peposertib concentration 0.0195 µM, gamma irradiation dose (Gy): 3): 0.245 | relative cell growth [3]: 0.992 ± 0.054 | relative cell growth (peposertib concentration 0.0781 µM, gamma irradiation dose (Gy): 3): 0.131 | relative cell growth [4]: 0.94 ± 0.046 | relative cell growth (peposertib concentration 0.313 µM, gamma irradiation dose (Gy): 3): 0.044 | relative cell growth [5]: 0.833 ± 0.15 | relative cell growth (peposertib concentration 1.25 µM, gamma irradiation dose (Gy): 3): 0.0135 | relative cell growth [6]: 0.675 ± 0.2 | relative cell growth (peposertib concentration 5 µM, gamma irradiation dose (Gy): 3): 0.0174

T24
relative cell growth [1]: 1.01 | relative cell growth [2]: 0.992 | relative cell growth [3]: 0.979 | relative cell growth [4]: 0.927 | relative cell growth [5]: 0.838 | relative cell growth [6]: 0.748

TE671
relative cell growth [1]: 0.999 | relative cell growth [2]: 0.999 | relative cell growth [3]: 0.989 | relative cell growth [4]: 0.929 | relative cell growth [5]: 0.736 | relative cell growth [6]: 0.243

THP1
relative cell growth [1]: 0.988 | relative cell growth [2]: 0.968 | relative cell growth [3]: 0.887 | relative cell growth [4]: 0.721 | relative cell growth [5]: 0.436 | relative cell growth [6]: 0.148

U2OS
relative cell growth [1]: 1.05 | relative cell growth [2]: 1.04 | relative cell growth [3]: 1 | relative cell growth [4]: 0.966 | relative cell growth [5]: 0.815 | relative cell growth [6]: 0.529

U87MG
relative cell growth [1]: 1.23 | relative cell growth [2]: 1.06 | relative cell growth [3]: 1.02 | relative cell growth [4]: 0.733 | relative cell growth [5]: 0.257 | relative cell growth [6]: 0.116

UMUC3
relative cell growth [1]: 1.06 | relative cell growth [2]: 1.06 | relative cell growth [3]: 0.997 | relative cell growth [4]: 0.932 | relative cell growth [5]: 0.819 | relative cell growth [6]: 0.5

WSUNHL
relative cell growth [1]: 1.07 | relative cell growth [2]: 1.08 | relative cell growth [3]: 0.713 | relative cell growth [4]: 0.513 | relative cell growth [5]: 0.0836 | relative cell growth [6]: -0.0127
